ChEMBL document CHEMBL1201862, “PubChem BioAssay data set” (2004)
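Results reflect a 48-hour exposure of cells in 96-well plates to compound at five concentrations. The concentration for 50% growth inhibition is given as GI50.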 Calls of active or inactive are those of the source. Cut-off read from the data, not from the text of the source: active = GI50 up to about 1.1 µM and inactive = higher.

Legend:
Test in all cases: NCI anticancer screen, dose series, 48 h
[1] = test system: HCC 2998
[2] = test system: K562
[3] = test system: NCI-H23
[4] = test system: MDA-N
[5] = test system: Malme-3M
[6] = test system: A549
[7] = test system: HOP-92
[8] = test system: COLO 205
[9] = test system: MOLT-4
[10] = test system: Hs-578T
[11] = test system: SF-539
[12] = test system: U-251
[13] = test system: IGROV-1
[14] = test system: CCRF-CEM
[15] = test system: KM12
[16] = test system: SN12C
[17] = test system: SNB-75
[18] = test system: RXF 393
[19] = test system: MDA-MB-231
[20] = test system: HCT-15
[21] = test system: UO-31
[22] = test system: NCI-H226
[23] = test system: NCI-H522
[24] = test system: OVCAR-3
[25] = test system: SK-OV-3
[26] = test system: RPMI-8226
[27] = test system: BT-549
[28] = test system: SF-295
[29] = test system: ACHN
[30] = test system: SF-268
[31] = test system: SNB-19
[32] = test system: SK-MEL-28
[33] = test system: OVCAR-5
[34] = test system: UACC-62
[35] = test system: T47D
[36] = test system: SK-MEL-5
[37] = test system: A498
[38] = test system: NCI/ADR-RES
[39] = test system: OVCAR-8
[40] = test system: PC-3
[41] = test system: NCI-H460
[42] = test system: UACC-257
[43] = test system: EKVX
[44] = test system: MCF7
[45] = test system: SK-MEL-2
[46] = test system: HCT-116
[47] = test system: OVCAR-4
[48] = test system: TK-10
[49] = test system: M14
[50] = test system: LOX IMVI
[51] = test system: 786-0
[52] = test system: HOP-62
[53] = test system: HT-29
[54] = test system: HL-60
[55] = test system: SW-620
[56] = test system: SR
[57] = test system: DU-145
[58] = test system: MDA-MB-435
[59] = test system: CAKI-1

With `COc1cc(/C=C2\CC(C)C/C(=C\c3ccc(O)c(OC)c3)C2=O)ccc1O` (stereo unspecified) the GI50 [1] was 3.21 µM (inactive), the GI50 [2] was 4.48 µM (inactive) and the GI50 [3] was 3.1 µM (inactive). For the same molecule, the GI50 [4] was 2.54 µM (inactive), the GI50 [5] was 1.9 µM (inactive) and the GI50 [6] was 3.64 µM (inactive). For the same molecule, the GI50 [7] was 2.92 µM (inactive), the GI50 [8] was 10.9 µM (inactive) and the GI50 [9] was 2.29 µM (inactive). For the same molecule, the GI50 [10] was 2.05 µM (inactive), the GI50 [11] was 3.12 µM (inactive) and the GI50 [12] was 2.38 µM (inactive). The GI50 [13] was 2.4 µM (inactive), the GI50 [14] was 2.56 µM (inactive) and the GI50 [15] was 1.85 µM (inactive). For the same molecule, the GI50 [16] was 2.56 µM (inactive), the GI50 [17] was 4.24 µM (inactive) and the GI50 [18] was 2.85 µM (inactive). For the same molecule, the GI50 [19] was 2.06 µM (inactive), the GI50 [20] was 1.73 µM and the GI50 [21] was 2.24 µM (inactive). The GI50 [22] was 4.85 µM (inactive), the GI50 [23] was 2.11 µM (inactive) and the GI50 [24] was 2.8 µM (inactive). For the same molecule, the GI50 [25] was 3.49 µM (inactive), the GI50 [26] was 3.58 µM (inactive) and the GI50 [27] was 3.23 µM (inactive). For the same molecule, the GI50 [28] was 10.6 µM (inactive), the GI50 [29] was 3.13 µM (inactive) and the GI50 [30] was 4.31 µM (inactive). For the same molecule, the GI50 [31] was 10.2 µM (inactive), the GI50 [32] was 3.42 µM (inactive) and the GI50 [33] was 19.6 µM (inactive). For the same molecule, the GI50 [34] was 1.85 µM (inactive), the GI50 [35] was 1.6 µM (inactive) and the GI50 [36] was 1.82 µM (inactive). For the same molecule, the GI50 [37] was 2.52 µM (inactive), the GI50 [38] was 17.5 µM (inactive) and the GI50 [39] was 9.2 µM (inactive). For the same molecule, the GI50 [40] was 4 µM (inactive), the GI50 [41] was 2.88 µM (inactive) and the GI50 [42] was 3.87 µM (inactive). The GI50 [43] was 13.8 µM (inactive), the GI50 [44] was 4.66 µM (inactive) and the GI50 [45] was 4.53 µM (inactive). The GI50 [46] was 1.77 µM (inactive), the GI50 [47] was 2.52 µM (inactive) and the GI50 [48] was 5.45 µM (inactive). For the same molecule, the GI50 [49] was 3.04 µM (inactive), the GI50 [50] was 2.29 µM (inactive) and the GI50 [51] was > 20.2 µM (inactive). For the same molecule, the GI50 [52] was 3.46 µM (inactive), the GI50 [53] was 6.37 µM (inactive) and the GI50 [54] was 2.98 µM (inactive). The GI50 [55] was 2.24 µM (inactive), the GI50 [56] was 2.86 µM (inactive) and the GI50 [57] was 3.72 µM (inactive). The GI50 [58] was 2.32 µM (inactive).

With `CCCCN(C)C(=O)C1=C(C)NC(C)=C(C(=O)N(C)CCCC)C1` the GI50 [1] was > 100 µM (inactive), the GI50 [2] was 54.3 µM (inactive) and the GI50 [3] was > 100 µM (inactive). The GI50 [4] was > 100 µM (inactive), the GI50 [6] was > 100 µM (inactive) and the GI50 [7] was > 100 µM (inactive). The GI50 [8] was > 100 µM (inactive), the GI50 [9] was > 100 µM (inactive) and the GI50 [10] was > 100 µM (inactive). For the same molecule, the GI50 [11] was > 100 µM (inactive), the GI50 [12] was > 100 µM (inactive) and the GI50 [13] was > 100 µM (inactive). The GI50 [14] was 66.2 µM (inactive), the GI50 [15] was > 100 µM (inactive) and the GI50 [16] was > 100 µM (inactive). For the same molecule, the GI50 [17] was 50.7 µM (inactive), the GI50 [18] was > 100 µM (inactive) and the GI50 [59] was > 100 µM (inactive). The GI50 [19] was > 100 µM (inactive), the GI50 [20] was over 100 µM and the GI50 [21] was 61.1 µM (inactive). The GI50 [22] was > 100 µM (inactive), the GI50 [23] was > 100 µM (inactive) and the GI50 [24] was > 100 µM (inactive). For the same molecule, the GI50 [25] was > 100 µM (inactive), the GI50 [26] was > 100 µM (inactive) and the GI50 [27] was > 100 µM (inactive). The GI50 [28] was > 100 µM (inactive), the GI50 [29] was > 100 µM (inactive) and the GI50 [30] was > 100 µM (inactive). For the same molecule, the GI50 [31] was > 100 µM (inactive), the GI50 [32] was > 100 µM (inactive) and the GI50 [33] was > 100 µM (inactive). For the same molecule, the GI50 [34] was > 100 µM (inactive), the GI50 [35] was 54.7 µM (inactive) and the GI50 [36] was > 100 µM (inactive). For the same molecule, the GI50 [37] was > 100 µM (inactive), the GI50 [38] was > 100 µM (inactive) and the GI50 [39] was > 100 µM (inactive). The GI50 [40] was > 100 µM (inactive), the GI50 [41] was > 100 µM (inactive) and the GI50 [42] was > 100 µM (inactive). For the same molecule, the GI50 [43] was > 100 µM (inactive), the GI50 [44] was > 100 µM (inactive) and the GI50 [45] was > 100 µM (inactive). For the same molecule, the GI50 [46] was > 100 µM (inactive), the GI50 [47] was > 100 µM (inactive) and the GI50 [48] was > 100 µM (inactive). For the same molecule, the GI50 [49] was > 100 µM (inactive), the GI50 [50] was > 100 µM (inactive) and the GI50 [51] was > 100 µM (inactive). The GI50 [52] was > 100 µM (inactive), the GI50 [53] was > 100 µM (inactive) and the GI50 [54] was 54.1 µM (inactive). The GI50 [55] was > 100 µM (inactive), the GI50 [56] was 83.9 µM (inactive) and the GI50 [57] was > 100 µM (inactive). For the same molecule, the GI50 [58] was > 100 µM (inactive).
